Measurements taken from the NIST ThermoML archive (doi:10.1021/je300632p).

Test: xn = mol fraction of the nth substance listed
Settings: 101 kPa, Liquid; for viscosity: Falling or rolling sphere viscometry; for mass density: Vibrating tube method

CCCO [propan-1-ol] + CCO
Settings | mass density [kg/m3] | viscosity [mPa·s]
293.15 K, x2 = 0 | 803.58 | 2.195
293.15 K, x2 = 0.1 | 802.08 | 2.034
293.15 K, x2 = 0.2 | 800.86 | 1.92
293.15 K, x2 = 0.301 | 799.68 | 1.825
293.15 K, x2 = 0.4 | 798.4 | 1.684
293.15 K, x2 = 0.5 | 797.31 | 1.586
293.15 K, x2 = 0.599 | 795.87 | 1.505
293.15 K, x2 = 0.701 | 794.36 | 1.408
293.15 K, x2 = 0.8 | 792.88 | 1.324
293.15 K, x2 = 0.9 | 791.44 | 1.242
298.15 K, x2 = 0 | 799.59 | 1.902
298.15 K, x2 = 0.1 | 798.08 | 1.81
298.15 K, x2 = 0.2 | 796.82 | 1.713
298.15 K, x2 = 0.301 | 795.65 | 1.632
298.15 K, x2 = 0.4 | 794.33 | 1.511
298.15 K, x2 = 0.5 | 793.22 | 1.425
298.15 K, x2 = 0.599 | 791.75 | 1.355
298.15 K, x2 = 0.701 | 790.21 | 1.272
298.15 K, x2 = 0.8 | 788.69 | 1.198
298.15 K, x2 = 0.9 | 787.22 | 1.127
303.15 K, x2 = 0 | 795.58 | 1.694
303.15 K, x2 = 0.1 | 794.05 | 1.615
303.15 K, x2 = 0.2 | 792.77 | 1.533
303.15 K, x2 = 0.301 | 791.57 | 1.464
303.15 K, x2 = 0.4 | 790.22 | 1.359
303.15 K, x2 = 0.5 | 789.08 | 1.284
303.15 K, x2 = 0.599 | 787.59 | 1.225
303.15 K, x2 = 0.701 | 786.02 | 1.152
303.15 K, x2 = 0.8 | 784.47 | 1.088
303.15 K, x2 = 0.9 | 782.96 | 1.024
308.15 K, x2 = 0 | 791.53 | 1.511
308.15 K, x2 = 0.1 | 789.98 | 1.446
308.15 K, x2 = 0.2 | 788.8 | 1.376
308.15 K, x2 = 0.301 | 787.45 | 1.317
308.15 K, x2 = 0.4 | 786.08 | 1.225
308.15 K, x2 = 0.5 | 784.92 | 1.16
308.15 K, x2 = 0.599 | 783.4 | 1.11
308.15 K, x2 = 0.701 | 781.8 | 1.046
308.15 K, x2 = 0.8 | 780.21 | 0.989
308.15 K, x2 = 0.9 | 778.67 | 0.933
313.15 K, x2 = 0 | 787.44 | 1.352
313.15 K, x2 = 0.1 | 785.86 | 1.297
313.15 K, x2 = 0.2 | 784.66 | 1.239
313.15 K, x2 = 0.301 | 783.29 | 1.188
313.15 K, x2 = 0.4 | 781.9 | 1.107
313.15 K, x2 = 0.5 | 780.71 | 1.051
313.15 K, x2 = 0.599 | 779.16 | 1.007
313.15 K, x2 = 0.701 | 777.53 | 0.952
313.15 K, x2 = 0.8 | 775.91 | 0.901
313.15 K, x2 = 0.9 | 774.33 | 0.852
318.15 K, x2 = 0 | 783.3 | 1.214
318.15 K, x2 = 0.1 | 781.7 | 1.167
318.15 K, x2 = 0.2 | 780.48 | 1.118
318.15 K, x2 = 0.301 | 779.09 | 1.074
318.15 K, x2 = 0.4 | 777.68 | 1.003
318.15 K, x2 = 0.5 | 776.45 | 0.954
318.15 K, x2 = 0.599 | 774.88 | 0.916
318.15 K, x2 = 0.701 | 773.22 | 0.867
318.15 K, x2 = 0.8 | 771.56 | 0.823
318.15 K, x2 = 0.9 | 769.95 | 0.78
323.15 K, x2 = 0 | 779.11 | 1.093
323.15 K, x2 = 0.1 | 777.49 | 1.053
323.15 K, x2 = 0.2 | 776.24 | 1.012
323.15 K, x2 = 0.301 | 774.83 | 0.973
323.15 K, x2 = 0.4 | 773.39 | 0.911
323.15 K, x2 = 0.5 | 772.14 | 0.867
323.15 K, x2 = 0.599 | 770.54 | 0.835
323.15 K, x2 = 0.701 | 768.85 | 0.792
323.15 K, x2 = 0.8 | 767.16 | 0.753
323.15 K, x2 = 0.9 | 765.52 | 0.715
328.15 K, x2 = 0 | 774.86 | 0.986
328.15 K, x2 = 0.1 | 773.22 | 0.953
328.15 K, x2 = 0.2 | 771.95 | 0.919
328.15 K, x2 = 0.301 | 770.52 | 0.884
328.15 K, x2 = 0.4 | 769.06 | 0.829
328.15 K, x2 = 0.5 | 767.78 | 0.79
328.15 K, x2 = 0.599 | 766.15 | 0.763
328.15 K, x2 = 0.701 | 764.43 | 0.725
328.15 K, x2 = 0.8 | 762.71 | 0.69
328.15 K, x2 = 0.9 | 761.02 | 0.657
